Experimental data reported in publication PMC8409973, “Synthesis, antiproliferative and antitrypanosomal activities, and DNA binding of novel 6-amidino-2-arylbenzothiazoles” (Journal of Enzyme Inhibition and Medicinal Chemistry, 2021).

How the values were obtained:
ctDNA [1] = assay: Thermal denaturation of ctDNA; format: binding, calf; settings: r = [compound]/[polynucleotide] = 0.3, pH 7.0; error ±0.5 °C
Protocol: (§1) These solutions were used for measurements in an aqueous buffer (pH = 7, sodium cacodylate buffer, I = 0.05 mol dm^−3). Polynucleotides were purchased as noted: poly (dAdT)2 and calf thymus ctDNA (Sigma-Aldrich). Polynucleotides were dissolved in Na-cacodylate buffer, I = 0.05 mol dm^−3, pH = 7. The calf thymus ctDNA was additionally sonicated and filtered through a […]. Polynucleotide concentration was determined spectroscopically[50]^,[51] as the concentration of phosphates.
(§2) The UV/Vis spectra were recorded on a Varian Cary 100 Bio spectrophotometer using 1 cm path quartz cuvettes. Calibration experiments were performed at 25 °C and pH = 7 (I = 0.05 mol dm^−3, sodium cacodylate buffer). Absorption maxima and corresponding molar extinction coefficients (ε) of benzothiazole derivatives are given in Table S1 (Supplementary material). Thermal melting curves for DNA and their complexes with studied compounds were determined as previously described by following the absorption change at 260 nm as a function of temperature. The absorbance of the ligands was subtracted from every curve and the absorbance scale was normalised. Tm values are the midpoints of the transition curves determined from the maximum of the first derivative and checked graphically by the tangent method. The ΔTm values were calculated by subtracting Tm of the free nucleic acid from Tm of the complex. Every ΔTm value reported here was the average of at least two measurements. The error in ΔTm is ±0.5 °C.

[2] = system: SW620 (colorectal adenocarcinoma, metastatic); assay: Proliferation assay (MTT, 72 h) on SW620; format: cell-based; settings: Homo sapiens, SW-620, SW620, 72 h
Protocol: (§3) Human cell lines SW620 (colorectal adenocarcinoma, metastatic), MCF-7 (human breast adenocarcinoma), CFPAC-1 (pancreatic adenocarcinoma), HeLa (cervical carcinoma), and HFF-1 (human foreskin fibroblasts) were obtained from the American Type Culture Collection (ATCC). Cells were cultured in a humidified atmosphere at 37 °C with 5% CO2. As a growth medium, Dulbecco’s modified Eagle medium (DMEM) was used with the addition of foetal bovine serum (10%), L-glutamine (2 mM), and antibiotics: streptomycin ([…]) and penicillin (100 U/ml).
(§4) Cells were seeded onto 96-well microtiter plates at a seeding density of 3000 cells/well for carcinoma cell lines, and 5000 cells/well for normal human fibroblasts. The next day, cells were treated with test agents at five different concentrations (0.01–100 µM) and further incubated for 72 h. […] 5-Fluorouracil (5-FU, 0.384 M fluorouracilum, Pliva 500 mg/10 ml) dissolved in physiological solution was used as a positive control. Following 72 h incubation, the MTT assay was performed and measured absorbances were transformed into a percentage of cell growth as described previously. Results were obtained from three independent experiments. IC50 values were calculated using linear regression analysis (FORECAST option taking into account the concentration range of two experimental points above and below IC50).

[3] = system: HeLa (cervical carcinoma); assay: Proliferation assay (MTT, 72 h) on HeLa; format: cell-based; settings: Homo sapiens
Protocol: as §3, §4

[4] = system: HFF-1 (human foreskin fibroblasts); assay: Proliferation assay (MTT, 72 h) on normal fibroblasts HFF-1; format: cell-based; settings: HFF-1 normal fibroblasts
Protocol: as §3, §4

calf thymus ctDNA = assay: Fluorimetric titration with ctDNA; format: binding; settings: for I/I0: fluorescence intensity of complex / starting intensity, ctDNA, pH 7.0; for LogKs: fluorescence titration with ctDNA, Scatchard, fixed n = 0.6, pH 7.0, sodium cacodylate I = 0.05 mol dm−3
Protocol: The calf thymus ctDNA was additionally sonicated and filtered through a […]. Polynucleotide concentration was determined spectroscopically[50]^,[51] as the concentration of phosphates. Fluorescence spectra were recorded on a Varian Cary Eclipse spectrophotometer at 25 °C using appropriate 1 cm path quartz cuvettes. […] In fluorimetric experiments, an excitation wavelength of λexc ≥300 nm was used to avoid the inner filter effect caused due to increasing absorbance of the polynucleotide. Emissions were determined in the range λem = 350–650 nm. Values for Ks were obtained by processing titration data using the Scatchard equation[52].

poly (dAdT)2 = assay: Thermal denaturation of p(dAdT)2; format: binding; settings: r = [compound]/[polynucleotide] = 0.3, pH 7.0; error ±0.5 °C
Protocol: as §1, §2

[5] = system: MCF-7 (human breast adenocarcinoma); assay: Proliferation assay (MTT, 72 h) on MCF-7; format: cell-based; settings: MCF7, MCF-7, 72 h
Protocol: as §3, §4

[6] = system: CFPAC-1 (pancreatic adenocarcinoma); assay: Proliferation assay (MTT, 72 h) on CFPAC-1; format: cell-based; settings: Homo sapiens, CFPAC-1, 72 h
Protocol: as §3, §4

[7] = system: Bloodstream form T. b. brucei (strain 221); assay: Antitrypanosomal screening (resazurin); format: cell-based; settings: Trypanosoma brucei; for IC90: concentration that inhibited growth by 90%, mean ± SEM; for IC50: mean of triplicate ± SEM
Protocol: Resazurin (20 μl at 0.125 mg ml^−1) was added after 48 h, the plates were incubated for a further 16 h, and then read in a Spectramax plate reader, and data analysed using GraphPad Prism. Each drug was tested in triplicate.

[8] = system: L6 cells (a rat myoblast line); assay: L6 cell proliferation (cytotoxicity, resazurin); format: cell-based; settings: for IC50: 144 h, rat myoblast L6, 6 days
ctDNA [9] = assay: CD titration of ctDNA; format: binding, calf; settings: for induced CD (ICD) signal with ctDNA: CD titration, pH 7.0, λ > 300 nm; for binding mode to ctDNA: concluded from ICD, ΔTm and binding constants
Protocol: as §1
CD spectra were recorded on a JASCO J815 spectrophotometer in 1 cm path quartz cuvettes. CD parameters: range = 500–220 nm, data pitch = 2, standard sensitivity, scanning speed = 200 nm/min, accumulation = 3–5. Titrations were performed at 25 °C and pH = 7 (I = 0.05 mol dm^−3, sodium cacodylate buffer). CD experiments were done by adding portions of the compound stock solution into the polynucleotide solution.

Compound | ΔTm ctDNA (ctDNA [1]) [°C] | IC50 [2] [nM] | IC50 [3] [nM] | melting point [°C] | IC50 [4] [nM] | I/I0 (calf thymus ctDNA) | LogKs (calf thymus ctDNA) | ΔTm p(dAdT)2 (poly (dAdT)2) [°C] | IC50 [5] [nM] | IC50 [6] [nM] | IC90 [7] [nM] | IC50 [7] [nM] | IC50 [8] [nM] | induced CD (ICD) signal with ctDNA (ctDNA [9]) | binding mode to ctDNA (ctDNA [9]) | SI IC50 (L6/Tb) ([8]; SI = [IC50 L6 cells]/[IC50 T. brucei])
CS(=O)(=O)O.Clc1ccc(-n2cc(-c3nc4ccc(C5=NCCN5)cc4s3)nn2)cc1 [14b, 6-(4,5-Dihydro-1H-imidazol-3-ium-2-yl)-2-[1-(4-chlorophenyl)-1H-1,2,3-triazole-4-yl]benzothiazole methanesulfonate] | 2.2 | 350 ± 130 | 480 ± 10 | > 300 | 360 ± 180 | 0.45 | 5.0 | 3.6 | 1770 ± 180 | 2420 ± 60 | 480 ± 20 | 320 ± 60 | < 2000 | – | – | –
COc1ccc(-n2cc(-c3nc4ccc(C5=NCCN5)cc4s3)nn2)cc1.CS(=O)(=O)O [14c, 6-(4,5-Dihydro-1H-imidazol-3-ium-2-yl)-2-[1-(4-methoxyphenyl)-1H-1,2,3-triazole-4-yl]benzothiazole methanesulfonate] | 0 | 360 ± 90 | 380 ± 100 | > 300 | 180 ± 10 | – | – | 4.5 | 540 ± 10 | 480 ± 30 | 490 ± 10 | 310 ± 20 | < 2000 | – | – | –
CS(=O)(=O)O.c1ccc(Cn2cc(COc3nc4ccc(C5=NCCN5)cc4s3)nn2)cc1 [11d, 6-(4,5-Dihydro-1H-imidazol-3-ium-2-yl)-2[(1-benzyl-1H-1,2,3-triazol-4-yl)methoxy]benzothiazole methanesulfonate] | – | 1810 ± 550 | 1400 ± 750 | 227 to 232 | 180 ± 20 | – | – | – | 2210 ± 1170 | 1210 ± 740 | 1300 ± 20 | 1090 ± 20 | < 200 | – | – | –
COc1ccc(-n2cc(COc3nc4ccc(C5=NCCN5)cc4s3)nn2)cc1.CS(=O)(=O)O [11c, 6-(4,5-Dihydro-1H-imidazol-3-ium-2-yl)-2-{[1-(4-methoxyphenyl)-1H-1,2,3-triazol-4-yl]methoxy}benzothiazole methanesulfonate] | – | 500 ± 160 | 2530 ± 10 | 253 to 257 | 240 ± 130 | – | – | – | 860 ± 970 | 2060 ± 700 | 230 ± 50 | 190 ± 40 | < 2000 | – | – | –
CS(=O)(=O)O.Clc1ccc(-n2cc(COc3nc4ccc(C5=NCCCN5)cc4s3)nn2)cc1 [12b, 6-(3,4,5,6-Tetrahydropyrimidin-1-ium-2-yl)-2-[(1-(4-Chlorophenyl)-1H-1,2,3-triazol-4-yl]methoxy)benzothiazole methanesulfonate] | – | 660 ± 210 | 2810 ± 580 | 220 to 224 | 240 ± 90 | 0.31 | 7.0 | – | 3910 ± 1190 | 3550 ± 810 | 1190 ± 20 | 910 ± 80 | 2320 ± 180 | positive induced CD spectra | minor groove binding mode | –
CS(=O)(=O)O.c1ccc(-n2cc(-c3nc4ccc(C5=NCCN5)cc4s3)nn2)cc1 [14a, 6-(4,5-Dihydro-1H-imidazol-3-ium-2-yl)-2-(1-phenyl-1H-1,2,3-triazole-4-yl)benzothiazole methanesulfonate] | 0.7 | 250 ± 160 | 670 ± 60 | – | 120 ± 10 | 0.54 | 5.6 | 2.6 | 520 ± 260 | 450 ± 190 | 530 ± 30 | 400 ± 20 | < 2000 | – | – | –
N=C(N)c1ccc2nc(-c3ccc(OCc4cn(-c5ccc(Cl)cc5)nn4)cc3)sc2c1 [10b] | 2.7 | 3050 ± 820 | 1240 ± 600 | – | 170 ± 130 | 0.12 | 6.6 | 2.3 | 870 ± 180 | – | 810 ± 40 | 540 ± 130 | 1460 ± 450 | small negative ICD signal | intercalation | –
COc1ccc(-n2cc(COc3nc4ccc(C5=NCCCN5)cc4s3)nn2)cc1.CS(=O)(=O)O [12c, 6-(3,4,5,6-Tetrahydropyrimidin-1-ium-2-yl)-2-{[1-(4-methoxyphenyl)-1H-1,2,3-triazol-4-yl]methoxy}benzothiazole methanesulfonate] | – | 5220 ± 1240 | 2640 ± 460 | 259 to 264 | 460 ± 270 | – | – | – | 3460 ± 450 | 3310 ± 600 | 1180 ± 20 | 900 ± 50 | 2920 ± 260 | – | – | 3.2
